Measurements: US20250144168A1, “LANTHIPEPTIDES AND METHODS OF USE” (priority 2022, published 2025)
Square brackets hold non-standard residues; d marks the D form. Ends that are not written are not given here. pT = C[C@@H](OP(=O)(O)O)[C@H](N)C(=O)O

Tests used:
M. luteus = experiment: Zone of inhibition of the isolated peptides (spot-on-lawn); format: cell-based; conditions: lantibiotic-sensitive target M. luteus
Experimental: Pure and homogenized SALI-10 colonies were selected to inoculate 10 ml of TSB supplemented with 2% yeast extract. The fermentation was carried out overnight at 37° C. with 5% CO2 for 18 h. The produced culture was used to inoculate 20 Petri dishes (100 mm), each containing 20 mL of TSA supplemented with 2% yeast extract and 0.2% CaCO3 and incubated as mentioned above (step 1). The agar cultures were then cut into small pieces and put into 250 mL centrifugation bottles. The bottles were incubated at −80° C. for 18 h and thawed immediately in a 70° C. water bath to produce liquid material. The liquid material was then collected by centrifugation, and the resultant supernatant was extracted with one volume of chloroform. The white precipitate from chloroform extraction was dried and resuspended in 2 ml of 35% acetonitrile in water (v/v). Centrifugation was performed to remove insoluble material to produce a clear peptide extract (we call it material A). The process was repeated with induction procedure by adding 50 μl of material A to 50 ml of TSB supplemented with yeast extract and inoculating this media with SALI-10 strain by repeating step 1 and generating 300 induced agar cultures instead of 20. The induced and chloroform extracted peptide was dried as in step 1 and resuspended in 20 ml of 35% ACN in water (v/v) supplemented with 0.1% TFA. The peptides preparation was processed via solid-phase extraction using C18 Sep-Pak® column (Waters, USA) prewashed with methanol and water. After loading the peptides sample, the column was washed with 10 mL of increasing methanol concentrations (10%, 30%, 50%, 70%). Active peptides were eluted with 95% methanol supplemented with 0.1% TFA. The peptides were finally purified using HPLC and C18-Reversed Phase chromatography as mentioned previously. Eluted fractions (1 ml per minute) were tested for antimicrobial activity against the sensitive strain M. luteus ATCC10240 using the spot-on-lawn method.

[1] = system: saliva-derived multispecies biofilms; experiment: Preformed saliva-derived multispecies biofilm, Live/Dead confocal microscopy; format: cell-based, human saliva bacteria; conditions: salivaricin 10 at 25 and 50 μg·ml^−1; nisin A at 50 μg·ml^−1; 20 min
Experimental: Biofilms were formed ex-vivo using cell-free saliva as a medium and total salivary cell as inoculum (from healthy subjects). Twenty-four hours pre-formed multispecies biofilms grown anaerobically were treated with either nisin A (50 μg·ml^−1) or two concentrations of salivaricin 10 (25 and 50 μg·ml^−1) for a time exposure of 20 min. […] Salivaricin 10 penetrated saliva-derived multispecies biofilms and effectively killed the bacterial cells within (labeled with PI, lighter gray). No such effect was noticed with untreated (PBS) biofilms controls where the viable cells labeled mainly with Syto9, black. the ratio of live to dead cells decreased by a factor of 6 times compared to PBS treated conditions. […] This dose-dependent reduction in the oral biofilm thickness was reported previously for nisin A [27].
12. Antimicrobial Activity Against Preformed Biofilms (Saliva-Derived De Novo Model)
Saliva-derived biofilms were established in 24 well glass bottom sensoplates (Greiner Bio-One, Monroe, NC, USA) as mentioned previously. […] The mean Intensity of pixels for viable signals (Syto-9; live) and (PI; dead) were measured within biofilm areas of each image with the slices containing the highest respective signal intensity using custom Fiji (ImageJ). […] All quantifications and statistical calculations are based on 10-15 images and 5-10 stacks for each repeat (three repeats). […]

[2] = system: saliva-derived multispecies biofilms; experiment: Preformed saliva-derived multispecies biofilm, 16S rRNA gene sequencing; format: cell-based, human saliva bacteria
Excerpt: 13. 16S rRNA Gene Sequencing […] 14. […] The UNOISE pipeline, available through […]11.0.667 and […]2.10.4, was used for sequence analysis. […] 5, a -[…] […] 1.0.

[3] = system: isolated human neutrophils; experiment: Neutrophil chemotaxis assay (Zigmond chamber); format: cell-based
Experimental: A suspension of 1×10^6 human PMNs in 100 μL HBSS containing 1% gelatin (Sigma-Aldrich) was placed on a 5% bovine serum albumin-coated 22×40 mm glass coverslip and incubated for 10 minutes at 37° C. Coverslips were then inverted onto a Zigmond chamber. Hundred microliters of HBSS and 100 μL HBSS containing N-formyl-methionyl-leucyl-phenylalanine (fMLP) 10^-6M or different concentrations of salivaricin 10 were added to the left and right chambers, respectively. PMN migration across the chamber was recorded with time-lapse of video microscopy at 20 second intervals for a period of 10 minutes using a Zeiss Motorized AxioVert (ZEISS). Captured images were analyzed using cell-tracking software (Retrac, v2.1.0.).

[4] = system: human whole blood neutrophils and monocytes; experiment: Whole blood phagocytosis (pHrodo) and CD marker flow cytometry; format: cell-based; conditions: N-terminal analogues, unlike full-length salivaricin 10
Excerpt: Neutrophils and monocytes display different activation states characterized by expression levels of cell surface CD marker in the oral cavity depending on the bacteria that they are interacting with. In health, neutrophils in the oral cavity are in a parainflammatory state, and with dysbiosis neutrophil phenotypes change towards a proinflammatory state. To determine if salivaricin 10 can prime neutrophils to augment pathogen elimination through phagocytosis, the surface expression of specific activation CD markers was assessed on human and murine neutrophils stimulated either with pHrodo (pH-sensitive, heat killed E. coli) alone or with salivaricin 10 and pHrodo. […]
SONY SA3800 flow cytometer was used to acquire the data. […] To validate the gating strategy and antibody labeling FMO (fluorescence minus one) controls were used. […]
Data were analyzed by FlowJo software (v10.8; Tree Star). The mean fluorescence intensities (MFIs) for each CD marker were measured. Significant differences (P<0.05) were determined using GraphPad Prism 9 (GraphPad Software, Inc.). for the in-vitro human blood and mouse bone marrow assay paired Student's t-test (n=3) was used for the statistical analysis. […]

[5] = system: CXCL10 and TGM2 gene expression in M1 macrophages; experiment: Macrophage gene expression assay (CXCL10, TGM2); format: cell-based; conditions: 40 μg/mL

Compound: GWFTAVQLTLAGRCGRWFTGSFECTTNNVKCG (cysteine pairing not given here; also: lanthionine modifications; listed as Streptococcus salivarius) [SrnA1, lanthipeptide of salivaricin 10, phenylalanine at position 22]
- antimicrobial activity (zone of inhibition) of the isolated peptide (M. luteus): reduced

Compound: nisin A
- damage to biofilm architecture (confocal images) [1]: significant and critical damage to the biofilm architecture
- S. gordonii, S. parasanguinis levels in the biofilm [2]: strongly inhibited
- commensal species of the genera Veillonella, Streptococcus and Haemophilus in the biofilm ([2]; salivaricin 10 at 25 μg and 50 μg): disrupted the indigenous oral biofilm, including beneficial commensals

Compound: CSCC[C@H](NC=O)C(=O)N[C@@H](CC(C)C)C(=O)N[C@@H](Cc1ccccc1)C(=O)O [fMLP, N-formyl-methionyl-leucyl-phenylalanine, reference compound]
- neutrophil migration speed ([3]; control peptide): ~11 μm/minute

Compound: GWSTAVRLTVQGRCGWWFTHSYECTSPNVRCG (cysteine pairing not given here; also: lanthionine modifications; listed as Streptococcus salivarius) [SrnA4]
- antimicrobial activity (zone of inhibition) of the isolated peptide (M. luteus): Reduced antimicrobial activity

Compound: GWFTAVQLTLAGRCGRWFTGSYECTTNNVKCG (cysteine pairing not given here; also: lanthionine modifications; listed as Streptococcus salivarius) [SrnA2, major lanthipeptide of salivaricin 10, tyrosine at position 22]
- antimicrobial activity (zone of inhibition) of the isolated peptide (M. luteus): more extensive zone of inhibition

Compound: NH2-GWFTAVQL-COOH (H-GWF[pT]AVQL-OH; SMILES CC(C)C[C@H](NC(=O)[C@H](CCC(N)=O)NC(=O)[C@@H](NC(=O)[C@H](C)NC(=O)[C@@H](NC(=O)[C@H](Cc1ccccc1)NC(=O)[C@H](Cc1c[nH]c2ccccc12)NC(=O)CN)[C@@H](C)OP(=O)(O)O)C(C)C)C(=O)O; listed as Streptococcus salivarius) [p(1-8) Sali10, chemically synthesized eight N-terminal unbridged residues of SrnA1 and SrnA2 with pThr4]
- effects on the neutrophils' CD marker expression [4]: Neither p (1-8) Sali10 (SEQ ID NO: 16) nor np (1-8) Sali10 showed effects
- neutrophil chemotaxis of the N-terminal tail analogues ([3]; 40 μg/mL, compared with full-length salivaricin 10): very similar activity to the full-length salivaricin 10
- gene expression of CXCL10 (M1 macrophage biomarker) [5]: downregulated
- gene expression of TGM2 (M2 macrophage biomarker) compared to M1 control cells [5]: upregulated
